Assay results: ChEMBL document CHEMBL1122606, “cis-4-[[[(2-Chloroethyl)nitrosoamino]carbonyl]methylamino] cyclohexanecarboxylic acid, a nitrosourea with latent activity against an experimental solid tumor” (J Med Chem, 1984)

How the values were obtained:
[1] = Half life period in phosphate buffer (pH 7.4); type: ADME
Mus musculus = organism: Mus musculus; experiment: Dose showing lethal effects on 10% of the mice bearing lewis lung tumors.; type: functional

| Compound | half-life [1] | LD10 (Mus musculus) |
| --- | --- | --- |
| CN(C(=O)N(CCCl)N=O)C1CCC(C(=O)O)CC1 (centres undefined) | 4.5 h | >400 mg/kg |
| O=NN(CCCl)C(=O)NC1CCC(C(=O)O)CC1 (centres undefined) | 46 h | 26 mg/kg |
